Where “and” joins values, the source holds several entries; their conditions need not be identical. Equal values may be shown once. Read-outs that look alike come from different tables or passages of the source.
Columns and labels:
5-HT2C receptor = molecular target: T1, 5-HT2C receptor (Homo sapiens, UniProt P28335); assay: biochemical; format: binding; settings: HEK293 stable cell line, 2 nM [3H]mesulergine, 1 h, 25° C.; for Ki: read-out: 5-HT2C Ki (nM) ([3H]mesulergine)
T1 construct: WuXi AppTec (Hong Kong) Limited (contract laboratory that ran the assay)
T1 sequence (P28335 33-458): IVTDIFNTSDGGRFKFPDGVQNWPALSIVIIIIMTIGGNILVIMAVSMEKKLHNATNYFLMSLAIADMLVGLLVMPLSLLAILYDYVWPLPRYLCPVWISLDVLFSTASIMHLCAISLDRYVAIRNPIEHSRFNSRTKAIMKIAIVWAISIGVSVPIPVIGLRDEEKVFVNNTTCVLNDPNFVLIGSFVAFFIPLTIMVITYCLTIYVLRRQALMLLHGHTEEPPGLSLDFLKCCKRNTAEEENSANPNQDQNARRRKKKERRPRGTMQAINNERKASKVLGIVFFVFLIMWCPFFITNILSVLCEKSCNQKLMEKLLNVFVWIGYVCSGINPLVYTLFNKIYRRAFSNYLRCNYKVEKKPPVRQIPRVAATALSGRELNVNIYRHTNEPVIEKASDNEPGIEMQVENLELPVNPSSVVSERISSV

5-HT2A receptor = molecular target: T2, 5-HT2A receptor (Homo sapiens, UniProt P28223); assay: FLIPR Ca2+ flux functional assay, antagonist activity at 5-HT2A; format: cell-based; settings: for 5-HT2A % Inh @ Max Dose: at max dose
T2 construct: WuXi AppTec (Hong Kong) Limited (contract laboratory that ran the assay)
T2 sequence (P28223 whole entry): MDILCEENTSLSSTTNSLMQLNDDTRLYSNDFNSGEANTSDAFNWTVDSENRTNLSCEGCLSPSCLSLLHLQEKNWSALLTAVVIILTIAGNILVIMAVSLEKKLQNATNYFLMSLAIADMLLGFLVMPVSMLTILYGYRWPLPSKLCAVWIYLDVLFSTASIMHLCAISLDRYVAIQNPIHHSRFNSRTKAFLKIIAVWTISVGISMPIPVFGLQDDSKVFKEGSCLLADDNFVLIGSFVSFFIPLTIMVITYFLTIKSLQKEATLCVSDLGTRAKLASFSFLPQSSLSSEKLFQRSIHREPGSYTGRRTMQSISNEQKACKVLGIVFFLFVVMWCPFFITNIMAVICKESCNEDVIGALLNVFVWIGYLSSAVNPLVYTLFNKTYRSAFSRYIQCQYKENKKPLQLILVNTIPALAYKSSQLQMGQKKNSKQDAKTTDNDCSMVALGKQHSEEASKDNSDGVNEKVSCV
Protocol: (§1) Key peripheral 5-HT2A receptors antagonists were tested for antagonist activity at several serotonin (5-HT) receptor subtypes (5-HT2A and 5-HT2B) using Ca^2+ flux functional assays, with the results summarized in Table 3. […] The ability to block peripheral 5-HT2B receptors in addition to 5-HT2A receptors is advantageous in the context of the present disclosure, as such blockade is likely to mitigate the potential cardiac valvulopathy induced by 5-HT2B receptor agonists. This is expected to be a potential side effect of many classical psychedelics, which activate 5-HT2B receptors as a secondary target. Accordingly, xylamidine and BW501C67 are preferred over Compound 14a for use in combination with 5-HT2A receptor agonists that also activate 5-HT2B receptors, since they also block this important off target. When taken together with the binding data presented above, xylamidine and BW501C67 appear to be potent pan-antagonists for 5-HT2-type receptors, whereas Compound 14a is selective for 5-HT2A receptors specifically.
(§2) Functional Assays at 5-HT2A and 5-HT2B. Antagonist activity at 5-HT2A and 5-HT2B receptors was determined using a FLIPR Ca^2+ flux assay at WuXi AppTec (Hong Kong) Limited according to their standard protocols. Briefly, stably transfected HEK293 cells expressing the receptor of interest were grown and plated in a 384 well plate and incubated at 37° C. and 5% CO2 overnight. This was combined with a fluorescent dye (Fluo-4 Direct™) to make a final assay concentration of 2.5 mM. Compounds were diluted 1:3.16 for 10 points and 750 nL was added to a 384 well compound plate using ECHO along with 30 μL assay buffer. The fluorescent dye was then added to the assay plate along with assay buffer to a final volume of 40 μL. The cell plate was incubated for 50 min at 37° C. and 5% CO2 and placed into the FLIPR Tetra along with the compound plate. 10 μL of references and compounds were then transferred from the compound plate into the cell plate and the fluorescent signal was read. Next, 10 μL of a 6× solution of 5-carboxamidotryptamine (5-CT) at the calculated EC80 was added and the fluorescent signal read again. Finally, the Max-Min signal was calculated for the runs with and without agonist.

5-HT2B receptor = molecular target: T3, 5-HT2B receptor (Homo sapiens, UniProt P41595); assay: FLIPR Ca2+ flux functional assay, antagonist activity at 5-HT2B; format: cell-based; settings: for 5-HT2B % Inh @ Max Dose: at max dose
T3 construct: host or cells: HEK293 (stably transfected)
T3 sequence (P41595 whole entry): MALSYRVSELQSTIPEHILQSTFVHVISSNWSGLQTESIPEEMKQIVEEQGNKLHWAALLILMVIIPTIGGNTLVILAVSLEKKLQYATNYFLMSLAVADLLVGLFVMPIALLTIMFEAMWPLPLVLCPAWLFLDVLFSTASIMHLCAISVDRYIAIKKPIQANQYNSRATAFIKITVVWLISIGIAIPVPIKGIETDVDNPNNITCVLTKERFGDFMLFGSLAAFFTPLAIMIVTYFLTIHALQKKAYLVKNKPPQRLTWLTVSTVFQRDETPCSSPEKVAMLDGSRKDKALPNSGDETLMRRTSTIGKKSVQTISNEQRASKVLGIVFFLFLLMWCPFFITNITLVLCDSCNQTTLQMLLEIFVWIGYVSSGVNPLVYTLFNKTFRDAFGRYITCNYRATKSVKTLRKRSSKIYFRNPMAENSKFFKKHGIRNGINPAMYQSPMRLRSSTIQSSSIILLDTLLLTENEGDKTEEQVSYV
Protocol: as §1, §2

in vivo = assay: in vivo
Protocol: The pharmacokinetics of peripheral 5-HT2A antagonists were studied in the plasma (Tables 11 and 12) and brains (Table 13 and 14) of rats after subcutaneous (SC) dosing. The results were used to interpret the in vivo pharmacological results.
Animals. Male Sprague Dawley rats, aged 8-12 weeks. were used in these studies. Four rats were housed in each cage. […] Temperature and humidity were recorded by an auto-controlled data logger system. All animals were provided laboratory rodent diet and were fasted for 4 h pre-dose and 2 h post-dose. Reverse osmosis water treated with ultraviolet light was provided ad libitum. Animals were randomly assigned to treatment groups.
Drugs and Drug Administration. Test compounds were prepared as described above or commercially obtained. They were administered subcutaneously (SC) at a dose of 1 or 10 mg/kg (as indicated, calculated based on the free base) and at a volume of 5 mL/kg body weight.
Sample Collection and Bioanalysis. […] SC. […] For both studies, immediately after blood collection, plasma was harvested by centrifugation at 4,000 rpm for 10 min at 4° C. and samples were stored at −70±10° C. until bioanalysis. Following blood collection, animals were immediately sacrificed, the abdominal vena-cava was cut open, and the whole body was perfused from the heart using 10 mL of normal saline, and brain samples were collected from all animals. After isolation, brain samples were rinsed three times in ice-cold normal saline (for 5-10 seconds/rinse using ˜5-10 mL normal saline in disposable petri dish for each rinse) and dried on blotting paper. Brain samples were homogenized using ice-cold phosphate-buffered saline (pH 7.4). Total homogenate volume was three times the tissue weight. All homogenates were stored at −70±10° C. until bioanalysis. For bioanalysis, 25 μL aliquots of plasma/brain study samples or spiked plasma/brain calibration standards were added to individual pre-labeled micro-centrifuge tubes followed by 100 μL of an internal standard solution (glipizide, 500 ng/ml in acetonitrile) except for blanks, where 100 μL of acetonitrile was added. Samples were vortexed for 5 minutes and then centrifuged for 10 minutes at 4,000 rpm at 4° C. Following centrifugation, 100 μL of each clear supernatant was transferred to a 96-well plate and analyzed with a fit-for-purpose LC-MS/MS method, with authentic samples of each analyte used for calibration and identification.

[1] = antagonist activity, Ca2+ flux, HEK293 cells, agonist at EC80
[2] = male, Sprague Dawley, rat, in vivo, sc, 1 mg/kg
[3] = antagonist activity, Ca2+ flux, HEK293 cells, agonist at EC80, read-out: 5-HT2A IC50
[4] = antagonist activity, Ca2+ flux, HEK293 cells, agonist at EC80, read-out: 5-HT2B IC50
[5] = male, Sprague Dawley, rat, in vivo, sc, 10 mg/kg

## CC(CNC(=N)CNc1ccccc1)Oc1cccc(Cl)c1.O=CO (centres unmarked) [BW501C67, N-(2-(3-chlorophenoxy)propyl)-2-(phenylamino)acetimidamide formate]
5-HT2C receptor
  5-HT2C Ki (nM) ([3H]mesulergine): high affinity
  Ki: 1.34 nM
5-HT2A receptor
  IC50: 14.5 nM
5-HT2A receptor; antagonist activity, Ca2+ flux
  5-HT2A % Inh @ Max Dose: 100.13%
5-HT2B receptor
  IC50: 21.6 nM
5-HT2B receptor; [1]
  5-HT2B IC50 (nM): high potency antagonism
5-HT2B receptor; antagonist activity, Ca2+ flux
  5-HT2B % Inh @ Max Dose: 99.74%
In vivo; [2]
  Cmax: 91.4 ng/mL and 32.3 ng/g
  concentration at 0.167 h: 91.4 ng/mL and 10.4 ng/g
  concentration at 0.5 h: 73.8 ng/mL and 13.6 ng/g
  half-life: 187 min
In vivo; male, Sprague Dawley, rat, in vivo, sc, 1 mg/kg, AUC0-last (h*ng/mL), brain, 1 mg/kg SC
  AUC(0-t): 436 ng·h/mL
In vivo; male, Sprague Dawley, rat, in vivo, sc, 1 mg/kg, AUC0-last (h*ng/mL), plasma, 1 mg/kg SC
  AUC(0-t): 277 ng·h/mL
In vivo; male, Sprague Dawley, rat, in vivo, sc, 1 mg/kg, Tmax (h), brain, 1 mg/kg SC
  Tmax: 240 min
In vivo; male, Sprague Dawley, rat, in vivo, sc, 1 mg/kg, Tmax (h), plasma, 1 mg/kg SC
  Tmax: 10.2 min

## CC(C)COc1ccc(CNC(=O)N(Cc2ccc(F)cc2)C2CCN(C(=O)CC[C@H](N)C(=O)O)CC2)cc1 [Compound 14a, (S)-2-amino-5-(4-(1-(4-fluorobenzyl)-3-(4-isobutoxybenzyl)ureido)piperidin-1-yl)-5-oxopentanoic acid]
5-HT2C receptor
  Ki: 106 nM
5-HT2A receptor; [3]
  IC50: 297 nM
5-HT2A receptor; antagonist activity, Ca2+ flux
  5-HT2A % Inh @ Max Dose: 100.01%
5-HT2B receptor; [4]
  IC50: > 10000 nM
5-HT2B receptor; antagonist activity, Ca2+ flux
  5-HT2B % Inh @ Max Dose: −12.17%
In vivo; [2]
  AUC(0-t): 434 ng·h/mL
  Cmax: 271 ng/mL
  Tmax: 30 min
  concentration at 0.167 h: 265 ng/mL
  concentration at 0.5 h: 271 ng/mL
  half-life: 51 min
In vivo; [5]
  concentration at 0.167 h: 966 ng/mL and 35.6 ng/g
  concentration at 0.5 h: 1530 ng/mL and 40.7 ng/g

## COc1cccc(CCc2ccccc2OCC(CN(C)C)OC(=O)CCC(=O)O)c1 (centres unmarked) [sarpogrelate]
In vivo; [5]
  concentration at 0.167 h: 2130 ng/mL and 28.9 ng/g
  concentration at 0.5 h: 2990 ng/mL and 31.8 ng/g

## COc1cccc(C(=O)Nc2ccc(OCCN3CCOCC3)c(-c3ccnn3C)c2)c1 [temanogrel]
In vivo; [5]
  concentration at 0.167 h: 411 ng/mL and 113 ng/g
  concentration at 0.5 h: 518 ng/mL and 148 ng/g

## COc1cccc(OC(C)CNC(=N)Cc2cccc(C)c2)c1.O=C(O)C(F)(F)F (centres unmarked) [xylamidine, N-(2-(3-methoxyphenoxy)propyl)-2-(m-tolyl) acetimidamide trifluoroacetate]
5-HT2C receptor
  5-HT2C Ki (nM) ([3H]mesulergine): high affinity
  Ki: 1.45 nM
5-HT2A receptor; [3]
  IC50: 24 nM
5-HT2A receptor; antagonist activity, Ca2+ flux
  5-HT2A % Inh @ Max Dose: 99.81%
5-HT2B receptor; [1]
  5-HT2B IC50 (nM): high potency antagonism
5-HT2B receptor; [4]
  IC50: 13.3 nM
5-HT2B receptor; antagonist activity, Ca2+ flux
  5-HT2B % Inh @ Max Dose: 99.68%
In vivo; brain, 1 mg/kg SC
  Tmax: 60 min
  t1/2: 289 min
In vivo; brain, 1 mg/kg SC, 0.167 h
  0.167 h (ng/g) brain concentration: 14.4 ng/g
In vivo; brain, 1 mg/kg SC, 0.5 h
  0.5 h (ng/g) brain concentration: 35.4 ng/g
In vivo; brain, 10 mg/kg SC, 0.167 h
  Mean brain concentration 0.167 h: 100.8 ng/g
In vivo; brain, 10 mg/kg SC, 0.5 h
  Mean brain concentration 0.5 h: 60.7 ng/g
In vivo; plasma, 1 mg/kg SC
  AUC0-last: 343.6 ng·h/mL
  Cmax: 155.4 ng/mL
  Tmax: 10.2 min
  t1/2: 103 min
In vivo; plasma, 1 mg/kg SC, 0.167 h
  0.167 h (ng/mL) plasma concentration: 155.4 ng/mL
In vivo; plasma, 1 mg/kg SC, 0.5 h
  0.5 h (ng/mL) plasma concentration: 133.4 ng/mL
In vivo; plasma, 10 mg/kg SC, 0.167 h
  Mean plasma concentration 0.167 h: 1099.2 ng/mL
In vivo; plasma, 10 mg/kg SC, 0.5 h
  Mean plasma concentration 0.5 h: 670.0 ng/mL
